# Data reported in PubChem BioAssay (NCI).
#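 At the GI50, growth is halved. TGI: total growth inhibition.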
# What was measured:
# Assay in all cases: growth of human tumour cells (NCI), 384-well format
# [1] = test system: NCI-H23 lung
# [2] = test system: NCI-H322M lung
# [3] = test system: NCI-H460 NSCLC
# [4] = test system: NCI-H522 lung
# [5] = test system: NCI/ADR-RES ovarian
# [6] = test system: OVCAR-3 ovarian
# [7] = test system: OVCAR-4 ovarian
# [8] = test system: OVCAR-5 ovarian
# [9] = test system: OVCAR-8 ovarian
# [10] = test system: PC-3 prostate
# [11] = test system: RPMI-8226 leukemia
# [12] = test system: RXF 393 renal
# [13] = test system: SF-268 CNS
# [14] = test system: SF-295 CNS
# [15] = test system: SF-539 CNS
# [16] = test system: SK-MEL-2 melanoma
# [17] = test system: SK-MEL-28 melanoma
# [18] = test system: SK-MEL-5 melanoma
# [19] = test system: SK-OV-3 ovarian
# [20] = test system: SN12C renal
# [21] = test system: SNB-19 CNS
# [22] = test system: SR leukemia
# [23] = test system: SW-620 colon
# [24] = test system: T-47D breast
# [25] = test system: TK-10 renal
# [26] = test system: U251 glioblastoma
# [27] = test system: UACC-257 melanoma
# [28] = test system: UACC-62 melanoma
# [29] = test system: UO-31 renal
structure (smiles),measurement,setting,value
COc1ccc(CC(NC(=O)[C@H](C)NC(=O)CN2CCOCC2)C(=O)N[C@@H](Cc2ccccc2)C(=O)[C@@]2(C)CO2)cc1 (some centres not stated),TGI,[1],362 nM
same,GI50,[2],284 nM
same,TGI,[2],860 nM
same,GI50,[3],181 nM
same,TGI,[3],355 nM
same,GI50,[4],167 nM
same,TGI,[4],304 nM
same,GI50,[5],20400 nM
same,TGI,[5],59400 nM
same,GI50,[6],131 nM
same,TGI,[6],262 nM
same,GI50,[7],147 nM
same,TGI,[7],284 nM
same,GI50,[8],192 nM
same,TGI,[8],360 nM
same,GI50,[9],184 nM
same,TGI,[9],340 nM
same,GI50,[10],188 nM
same,TGI,[10],333 nM
same,GI50,[11],23.8 nM
same,TGI,[11],55.4 nM
same,GI50,[12],135 nM
same,TGI,[12],268 nM
same,GI50,[13],136 nM
same,TGI,[13],269 nM
same,GI50,[14],157 nM
same,TGI,[14],294 nM
same,GI50,[15],175 nM
same,TGI,[15],315 nM
same,GI50,[16],22.6 nM
same,TGI,[16],93.8 nM
same,GI50,[17],132 nM
same,TGI,[17],262 nM
same,GI50,[18],192 nM
same,TGI,[18],345 nM
same,GI50,[19],171 nM
same,TGI,[19],312 nM
same,GI50,[20],179 nM
same,TGI,[20],320 nM
same,GI50,[21],188 nM
same,TGI,[21],347 nM
same,GI50,[22],30.4 nM
same,TGI,[22],106 nM
same,GI50,[23],167 nM
same,TGI,[23],312 nM
same,GI50,[24],159 nM
same,TGI,[24],302 nM
same,GI50,[25],298 nM
same,TGI,[25],802 nM
same,GI50,[26],173 nM
same,TGI,[26],316 nM
same,GI50,[27],123 nM
same,TGI,[27],253 nM
same,GI50,[28],126 nM
same,TGI,[28],254 nM
same,GI50,[29],1750 nM
same,TGI,[29],3170 nM
